In assay [1] the test system is RWPE-1 cells overexpressing mda-9. The assay can be described thus: modified Boyden Chamber invasion assay. The assay is classed as cell-based, human. The procedure: (§1) FIGS. 17A-17H. Effect of PDZ1i on invasion, MDA-9/IGF-R1 interaction and IGF-R1, STAT3 and SRC phosphorylation. FIG. 17A) Different cancer cells (25,000 cells/well) from various anatomic origins were pre-treated with either DMSO (vehicle) or PDZ1i (dose as indicated) and invasion ability was assayed using modified Boyden Chamber according to the manufacturer's instructions. Photomicrographs were taken at 10× magnification and quantification of the results of three independent experiments is provided in the graphs. The data presents mean±S.D. B) The designated cells were treated with DMSO or PDZ1i and invasion properties were determined using a modified Boyden Chamber assay (BD bioscience). RWPE-1 mda-9: mda-9 transiently overexpressing cell line. […] FIG. 17E) Cells were growth starved for 24 h and treated with either DMSO or PDZ1i (dose indicated in μM) for 6 h. Cells were treated with human recombinant IGFBP-2 (hIGFBP-2, 10 ng/ml) for 2 h, lysates were prepared and western blot analysis was conducted with specific antibodies. […] Cells were treated with human recombinant IL-6 (hIGFBP-2, 1 ng/ml) for 2 h, cell lysates were prepared and analyzed by western blotting. […]
Boyden chamber assays were done to investigate the invasive properties of cancer cells^26, 27. […] After 18 h, invasive cells were photographed and analyzed.

Another assay has as its system IGF-1R and STAT3. The assay can be described thus: western blot after hIGFBP-2 stimulation. Format: cell-based. The settings on record: dose- and time-dependent. The procedure:
as §1, with “antibodies. FIG. 17F) Cells were serum-starved for 24 h and treated with either DMSO or PDZ1i (20 μM) for 6 h.” for “antibodies.”

The test system of another assay is prostate adenocarcinoma. As to the kind of experiment: Hi-myc spontaneous prostate cancer transgenic model. Format: in vivo, Hi-myc mice. To be noted: 30 mg/kg I.P., 9 times for the first three weeks. The procedure:
FIG. 19A-19F. PDZ1i suppresses prostate cancer metastasis and tumor progression. FIG. 19A) Survival data for athymic nude mice in which DMSO or PDZ1i pre-treated ARCaPM cells were injected. FIG. 19B) Survival data for athymic nude mice which were injected with (n=5, each group) ARCaPM-Luc (1×10^6 cells in 100 μl saline) through an intracardiac route. Mice received either vehicle or PDZ1i every alternative day (9 injections during the first […]) and maintained until they needed to be euthanized. FIG. 19C) Survival data for C57BL/6 mice injected through the intracardiac route with RM1-Luc. Vehicle or PDZ1i was administered through intraperitoneal injection every alternate day (total 3 injections during the first week). Survival curves were generated using 6 control vehicle-treated and 5 PDZ1i-treated. Kaplan—Meier survival curves were prepared using Graph Pad software. […] Graphical representation of the average prostate weights from control and treated groups. FIG. 19E and FIG. 19F) Photomicrographs representing the histological changes in prostate sections obtained from 6-month old Hi-Myc mice receiving either vehicle (FIG. 19E) or PDZ1i (FIG. 19F). To evaluate potential therapeutic efficacy of PDZ1i four sets of in vivo experiments were conducted. […]

The next assay has as its system EGFR. As to the kind of experiment: EGFR activation in PC cells. The assay is classed as cell-based. The procedure:
Considering the key role of MDA-9/IGF-1R interactions in STAT-3 activation, which has a decisive impact on PC progression, small molecule inhibitors that bind to MDA-9 were tested for their ability to specifically interrupt MDA-9/IGF-1R interactions thereby affecting STAT3 activation and PC invasion. […] In PC cells, PDZ1i-mediated downregulation of c-Src activation is partially IGF-1R dependent. Another tyrosine kinase, EGFR, which is also an interacting partner of MDA-9, has been reported to activate c-Src in PC.

As for `Cc1cc(NC(=O)c2nc3[nH]c4c(c(=O)n3n2)CCC4)c(C)cc1NC(=O)CCc1nnc(-c2ccccc2)o1` [113B7, N-(2,5-dimethyl-4-(3-(5-phenyl-1,3,4-oxadiazol-2-yl)propanamido)phenyl)-8-oxo-5,6,7,8-tetrahydro-4H-cyclopenta[d][1,2,4]triazolo[1,5-a]pyrimidine-2-carboxamide], in assay [1], the mda-9-mediated invasion result was “significantly attenuated”. In the assay with IGF-1R and STAT3, the “IGF-1R and STAT3 activity” value is recorded as “down regulates”. Further, in the assay on prostate adenocarcinoma, the “size and weight of prostates” value is given as “significantly less”. Also, the EGFR activation result in the assay with EGFR is reported as “did not have any effect”.

For the origin of these results see patent US11008325B2, “Inhibitors of cancer invasion, attachment, and/or metastasis” (VIRGINIA COMMONWEALTH UNIVERSITY, priority 2016, dated 2021).
